Results taken from patent US11884647B2, “Compounds and methods for targeting pathogenic blood vessels” (THE REGENTS OF THE UNIVERSITY OF CALIFORNIA, priority 2019, dated 2024).

Legend:
[1] = test system: tumor endothelial cells (CT26.CL25 colon cancer tumor); assay: Colon CT26 ex vivo model of tumor angiogenesis; type: cell-based; conditions: Mus musculus, CT26, 48 h, read-out: Cell death
Method: This example describes a procedure to prepare a primary tumor angiogenesis model for assessing the efficacy of anti-cancer candidate agents.
1. The day before the experiment, spray all necessary tools with 70% ethanol and sterilize them under UV light overnight, including blade, dissecting and micro-dissecting scissors and […]. Place 24-well dishes at 4° C. to pre-chill plates and thaw Matrigel 24 hours before tumor dissection.
2. Spray 70% ethanol on working bench. Prepare two sterile petri dishes with 10 mL sterile PBS. Steps 3 and 4 are for mouse tumor models. For fresh human tumor, directly go to step 5.
3. Euthanize the tumor-bearing mice. Spray 70% ethanol on the mouse and remove the tumor using sterilized dissecting tools (avoid the fur). Rinse the tumor in petri dish with sterile PBS to remove ethanol and fur. Transfer the tumor to a new petri dish with PBS for dissection. Place the dish on ice.
4. Using pre-chilled sterile pipet tips to seed regular Matrigel in 24 well plates on ice. Matrigel (30 μL) is dropped in the middle of each well without touching the edge of the well (avoid introducing bubbles if possible).
5. Cut the tumor in halves using the sterile blade. Identify and isolate healthy tumor tissue that is not necrotic and is within the tumor capsule. Cut the healthy tumor tissue into small pieces. For instance, a suitable size for the tumor tissue is 0.5 mm (H)×0.5 mm (L)×0.3 mm (D) with a total volume of 0.075 mm^3.
6. Gently transfer and embed each tumor piece in the Matrigel drop in the 24-well plate. Place the embedded piece in the bottom and middle of each Matrigel drop. Keep the plate on ice all the time.
7. After seeding the tumor pieces, plates are incubated in a 37° C. cell culture incubator without medium for 10 minutes in order for the Matrigel to solidify.
8. Endothelial Growth Medium (0.5 mL) is added to each well and incubated at 37° C. with 5% CO2. Wait until the new endothelial cells have grown out of the tumor or are larger than 3 mm in diameter until treatment. This usually takes 4 days for the LL2 Lewis lung cancer model and 7 days for the CT26 colon cancer model. For human tumor models, the growth time is typically 2-3 weeks, depending on the tumor type. Media is changed every 4 days during prolonged culture. Typically, when the tumor tissue grows to 2 mm in diameter, it is good for drug testing. A size of about 3 mm in diameter can make visualization easier.
9. When the assay is ready to be analyzed for cell death (e.g., 48 hours after drug addition), prepare the dye mixture by mixing 6 μL of green dye to stain live cells (5 mg/mL Fluorescein diacetate or FDA in DMSO) with 30 μL of red dye (2.5 mg/mL Propidium iodide or PI in PBS) to stain dead cells in an Eppendorf tube. The FDA dye needs to be stored frozen in a −20° C. freezer because it has a labile ester bond.
10. Add 1 μL of the dye mixture to each well of the 24-well dish. It is usually performed one 24-well dish at a time given the amount of time needed to take pictures (the green dye is not as stable in the cells in the long term).
11. Gently rock the dish a few times to mix the dye with the media in the wells and incubate the dish at 37° C. for 10 min (too long incubation can make the green signal too intense).
12. Wash each well with 0.5 mL of sterile PBS and then add 0.5 mL of phenol red free SFM to each well. Alternatively 0.5 mL of regular Endothelial Cell Growth Media can be added to each well if this well needs to be continuously maintained after the experiment.
13. Look through all wells on an inverted microscope using the 2× objective lens to observe morphological changes.
14. Taking pictures in the red and green channels would allow not only the recording of the result but also more accurate quantitation of the result. To take pictures for all the wells, first pick a well that has robust red and green signals. […]

[2] = test system: tumor endothelial cells (LL/2 lung cancer tumor); assay: Lung LL2 ex vivo model of tumor angiogenesis; type: cell-based, mouse; conditions: for cytotoxicity at 40 µM: Mus musculus, Endothelial cell, 48 h, read-out: Cell death
Outline: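 Read-out is live/dead fluorescence imaging (fluorescein diacetate green, propidium iodide red, 10 min at 37° C) at 2×, taken e.g. 48 h after drug addition. Fragments of mouse LL2 tumor are cultured in Matrigel with endothelial growth medium, usually 4 days, until new endothelial cells grow out, then treated.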

SMILES | cytotoxicity at 40 µM [1] | cytotoxicity at 40 µM [2] | Cell death ([2]; Lung LL2 ex vivo, Conc. 40 μm, drug treatment two days)
CCc1ccc(S(=O)(=O)c2cnc3ccc(OC(F)(F)F)cc3c2N2CCCN(CC(=O)O)CC2)cc1 [compound 42, 2-(4-(3-((4-ethylphenyl)sulfonyl)-6-(trifluoromethoxy)quinolin-4-yl)-1,4-diazepan-1-yl)acetic acid] | 0% | 30% | –
COc1ccc(S(=O)(=O)c2cnc3ccc(OC(F)(F)F)cc3c2N2CCC(N3CCCCC3)CC2)cc1 [compound 43, 4-([1,4′-bipiperidin]-1′-yl)-3-((4-methoxyphenyl)sulfonyl)-6-(trifluoromethoxy)quinoline] | 90% | 100% | –
COc1ccc(S(=O)(=O)c2cnc3ccc(OC(F)(F)F)cc3c2N2CCC(O)CC2)cc1 [compound 44, 1-(3-((4-methoxyphenyl)sulfonyl)-6-(trifluoromethoxy)quinolin-4-yl)piperidin-4-ol] | 0% | 50% | –
CCc1ccc(S(=O)(=O)c2cnc3ccc(OC(F)(F)F)cc3c2N2CCN(c3ccc(C#N)cc3)CC2)cc1 [compound 45, 4-(4-(3-((4-ethylphenyl)sulfonyl)-6-(trifluoromethoxy)quinolin-4-yl)piperazin-1-yl)benzonitrile] | 0% | – | 10%
CCc1ccc(S(=O)(=O)c2cnc3ccc(OC(F)(F)F)cc3c2N2CCC(N3CCCC3)CC2)cc1 [compound 46, 3-((4-ethylphenyl)sulfonyl)-4-(4-(pyrrolidin-1-yl)piperidin-1-yl)-6-(trifluoromethoxy)quinoline] | 100% | 100% | –
CCOC(=O)C1CCN(c2c(S(=O)(=O)c3ccc(CC)cc3)cnc3ccc(OC(F)(F)F)cc23)CC1 [compound 47, ethyl 1-(3-((4-ethylphenyl)sulfonyl)-6-(trifluoromethoxy)quinolin-4-yl)piperidine-4-carboxylate] | 10% | 50% | –
CCc1ccc(S(=O)(=O)c2cnc3ccc(OC(F)(F)F)cc3c2N2CCC(CO)CC2)cc1 [compound 48, (1-(3-((4-ethylphenyl)sulfonyl)-6-(trifluoromethoxy)quinolin-4-yl)piperidin-4-yl)methanol] | 10% | 60% | –
CCc1ccc(S(=O)(=O)c2cnc3ccc(OC(F)(F)F)cc3c2N(C)Cc2ccccc2)cc1 [compound 49, N-benzyl-3-((4-ethylphenyl)sulfonyl)-N-methyl-6-(trifluoromethoxy)quinolin-4-amine] | 10% | 30% | –
CCc1ccc(S(=O)(=O)c2cnc3ccc(OC(F)(F)F)cc3c2NN2CCN(C)CC2)cc1 [compound 50, 3-((4-ethylphenyl)sulfonyl)-N-(4-methylpiperazin-1-yl)-6-(trifluoromethoxy)quinolin-4-amine] | 100% | 90% | –
CCc1ccc(S(=O)(=O)c2cnc3ccc(OC(F)(F)F)cc3c2-n2cncn2)cc1 [compound 51, 3-((4-ethylphenyl)sulfonyl)-4-(1H-1,2,4-triazol-1-yl)-6-(trifluoromethoxy)quinoline] | 20% | 100% | –
CCc1ccc(S(=O)(=O)c2cnc3ccc(OC(F)(F)F)cc3c2N2CCC3(CC2)OCCO3)cc1 [compound 52, 8-(3-((4-ethylphenyl)sulfonyl)-6-(trifluoromethoxy)quinolin-4-yl)-1,4-dioxa-8-azaspiro[4.5]decane] | 0% | 50% | –
N#Cc1ccc(S(=O)(=O)c2cnc3ccc(OC(F)(F)F)cc3c2N2CCC(N3CCCCC3)CC2)cc1 [compound 54, 4-((4-([1,4′-bipiperidin]-1′-yl)-6-(trifluoromethoxy)quinolin-3-yl)sulfonyl)benzonitrile] | 10% | 50% | –
CCc1ccc(S(=O)(=O)c2cnc3ccc(CC#N)cc3c2N2CCC(N3CCCCC3)CC2)cc1 [compound 55, 2-(4-([1,4′-bipiperidin]-1′-yl)-3-((4-ethylphenyl)sulfonyl)quinolin-6-yl)acetonitrile] | 50% | 70% | –
COc1ccc(S(=O)(=O)c2cnc3ccc(OC(F)(F)F)cc3c2N2CCC(N3CCCCC3)CC2)cc1OC [compound 56, 4-([1,4′-bipiperidin]-1′-yl)-3-((3,4-dimethoxyphenyl)sulfonyl)-6-(trifluoromethoxy)quinoline] | 30% | 20% | –
COc1ccc(S(=O)(=O)c2cnc3ccc(OC(F)(F)F)cc3c2N2CCCN(C)CC2)cc1OC [compound 57, 3-((3,4-dimethoxyphenyl)sulfonyl)-4-(4-methyl-1,4-diazepan-1-yl)-6-(trifluoromethoxy)quinoline] | 60% | 40% | –
COc1ccc(S(=O)(=O)c2cnc3ccc(OC(F)(F)F)cc3c2N2CCC(O)CC2)cc1OC [compound 58, 1-(3-((3,4-dimethoxyphenyl)sulfonyl)-6-(trifluoromethoxy)quinolin-4-yl)piperidin-4-ol] | 50% | 50% | –
O=[N+]([O-])c1ccc(S(=O)(=O)c2cnc3ccc(OC(F)(F)F)cc3c2N2CCC(N3CCCCC3)CC2)cc1 [compound 59, 4-([1,4′-bipiperidin]-1′-yl)-3-((4-nitrophenyl)sulfonyl)-6-(trifluoromethoxy)quinoline] | 50% | 40% | –
O=[N+]([O-])c1ccc(S(=O)(=O)c2cnc3ccc(OC(F)(F)F)cc3c2N2CCC(O)CC2)cc1 [compound 61, 1-(3-((4-nitrophenyl)sulfonyl)-6-(trifluoromethoxy)quinolin-4-yl)piperidin-4-ol] | 20% | 50% | –
CCc1ccc(S(=O)(=O)c2cnc3ccc(OC(F)(F)F)cc3c2N2CCC(O)(c3ccc4c(c3)OCO4)CC2)cc1 [compound 147, 4-(benzo[d][1,3]dioxol-5-yl)-1-(3-((4-ethylphenyl)sulfonyl)-6-(trifluoromethoxy)quinolin-4-yl)piperidin-4-ol] | 0% | – | –
CCOC(=O)c1ccc2ncc(S(=O)(=O)c3ccc(CC)cc3)c(N3CCC(O)(c4ccc(OC)cc4)CC3)c2c1 [compound 148, ethyl 3-((4-ethylphenyl)sulfonyl)-4-(4-hydroxy-4-(4-methoxyphenyl)piperidin-1-yl)quinoline-6-carboxylate] | 0% | – | –
CCOC(=O)c1ccc2ncc(S(=O)(=O)c3ccc(CC)cc3)c(N3CCC(O)(c4cccc(OC)c4)CC3)c2c1 [compound 149, ethyl 3-((4-ethylphenyl)sulfonyl)-4-(4-hydroxy-4-(3-methoxyphenyl)piperidin-1-yl)quinoline-6-carboxylate] | 20% | – | –
COc1ccc(S(=O)(=O)c2cnc3ccc(OC(F)(F)F)cc3c2N2CCC(O)(c3cccc(OC)c3)CC2)cc1 [compound 150, 4-(3-methoxyphenyl)-1-(3-((4-methoxyphenyl)sulfonyl)-6-(trifluoromethoxy)quinolin-4-yl)piperidin-4-ol] | 10% | – | –
COc1ccc(S(=O)(=O)c2cnc3ccc(SC)cc3c2N2CCC(N3CCC(O)CC3)CC2)cc1OC [compound 153, 1′-(3-((3,4-dimethoxyphenyl)sulfonyl)-6-(methylthio)quinolin-4-yl)-[1,4′-bipiperidin]-4-ol] | 20% | – | –
CCCCOc1ccc(S(=O)(=O)c2cnc3ccc(SC)cc3c2N2CCCN(CCN3CCCC3)CC2)cc1 [compound 207, 3-((4-butoxyphenyl)sulfonyl)-6-(methylthio)-4-(4-(2-(pyrrolidin-1-yl)ethyl)-1,4-diazepan-1-yl)quinoline] | 100% | – | –
